Source: patent US5281603A, “Angiotensin II receptor blocking 2,3,6 substituted quinazolinones” (American Cyanamid Company, priority 1993, dated 1994)

Target: T1, Angiotensin II Receptor (Bos taurus, UniProt P25104)
T1 construct: The brownish tissue forming the adrenal cortex is scraped off and finely minced with scissors before homogenization; from tissue; host or cells: beef adrenal cortex, microsomal membranes (100,000×g pellet)
T1 sequence (P25104 1-359): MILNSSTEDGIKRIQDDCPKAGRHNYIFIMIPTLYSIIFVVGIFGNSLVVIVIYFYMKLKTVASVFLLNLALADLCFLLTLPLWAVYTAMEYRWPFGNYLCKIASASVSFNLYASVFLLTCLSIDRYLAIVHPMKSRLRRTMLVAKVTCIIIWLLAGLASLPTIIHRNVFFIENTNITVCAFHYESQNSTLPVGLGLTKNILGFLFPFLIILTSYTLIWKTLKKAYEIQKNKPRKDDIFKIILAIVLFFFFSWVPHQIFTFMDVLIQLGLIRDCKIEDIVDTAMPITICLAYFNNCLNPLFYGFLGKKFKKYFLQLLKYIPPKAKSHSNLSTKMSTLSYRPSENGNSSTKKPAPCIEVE
Test: Angiotensin II Receptor Binding: displacement of [^125 I](Sar^1,Ile^8)AngII from beef adrenal cortex membranes
Design: species or system beef (bovine)
Settings: radioligand; non-specific binding with 1.0 uM unlabeled (Sar^1,Ile^8)AngII
Description: Beef adrenals are obtained from a local slaughter house (Maxwell-Cohen). [^125 I](Sar^1,Ile^8)AngII, S.A. 2200 Ci/mmole, is purchased from Dupont (NEN®, Boston, Mass.). All unlabeled AngII analogs, Dimethylsulfoxide (DMSO), nucleotides, bovine serum albumin (BSA) are purchased from Sigma Chemical Co., St. Louis, Mo. U.S.A.
Approximately sixteen (16) to twenty (20) beef adrenal glands are processed as follows: fresh adrenal glands received on crushed ice are cleaned of fatty tissues and the tough membranes encapsulating the glands are removed and discarded. The brownish tissue forming the adrenal cortex is scraped off and finely minced with scissors before homogenization. Care is taken to avoid contamination with medullary tissue during dissection. The scraped cortices are suspended in twenty volumes of an ice-cold buffer medium consisting of 10 mM Tris.HCl (pH 7.4 at 22° C.) and containing 1.0 mM EDTA and 0.2M sucrose. Unless otherwise indicated, all subsequent operations are done at 4° C. […] The homogenate is centrifuged first at low speed (3,000×g) for 10 min. […] This P2 pellet is discarded and the liquid phase is carefully decanted off in clean centrifuge tubes and recentrifuged at high speed (100,000×g) for 60 min. The translucent final pellet is harvested and combined in a small volume (20-50.0 ml) of 50.0 mM Tris.HCl buffer, pH 7.2. […] The pelleted membrane is reconstituted in 50.0 mM Tris.HCl buffer containing 0.1 mM of phenylmethylsulfonyl fluoride (PMSF) to give approximately a protein concentration of 2.5 mg per ml of tissue suspension. The membrane preparation is finally aliquoted in 1.0 ml volumes and stored at -70° C. until use in the binding assays. […]
The wells are left undisturbed for 60 min. at room temperature. […] The filters are removed from the filter grid and counted in a Parkard® Cobra Gamma Counter for 1 min. […] The binding data are analyzed by the non-linear interactive "LUNDON-1" program (LUNDON SOFTWARE Inc., Cleveland, Ohio U.S.A.).

Specific binding: greater than 90%
Substance: [^125 I](Sar^1,Ile^8)AngII [reference compound]
